According to patent US20090081197A1 (Palatin Technologies, Inc., priority 2007, published 2009):
Where two headings read alike, the source gives them in different places. Non-standard residues stand in square brackets, D forms with d. Residues, ends and D or L forms follow the SMILES beside them. *: point of attachment. dPhe(4-Cl) = N[C@H](Cc1ccc(Cl)cc1)C(=O)O; Ahp = NCCCCCCC(=O)O; Bn = c1ccc(C*)cc1

What was measured:
[1] = molecular target: T1, MC1-R (Mus musculus, UniProt Q01727); assay: Competitive inhibition assay using [I^125]-NDP-α-MSH, B-16 mouse melanoma cell membranes; format: binding; conditions: for inhibition at 1 µM: 1 μM test compound, read-out: Inhibition at 1 μM (NDP-α-MSH) In Normal System, MC1-R; for Ki: read-out: Ki (nM) (NDP-α-MSH) In Normal System, MC1-R
T1 construct: B-16 mouse melanoma cells (containing MC1-R); endogenous in cells
T1 sequence (Q01727 whole entry): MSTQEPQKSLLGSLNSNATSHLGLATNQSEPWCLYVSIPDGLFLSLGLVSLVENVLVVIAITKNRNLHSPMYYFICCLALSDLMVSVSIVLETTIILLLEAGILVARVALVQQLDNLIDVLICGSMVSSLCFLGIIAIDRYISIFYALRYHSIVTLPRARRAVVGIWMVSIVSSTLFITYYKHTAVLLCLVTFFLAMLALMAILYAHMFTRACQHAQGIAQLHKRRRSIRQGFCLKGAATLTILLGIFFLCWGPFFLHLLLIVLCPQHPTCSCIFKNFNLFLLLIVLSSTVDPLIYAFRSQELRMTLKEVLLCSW
Summary of the method: (§1)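 Tracer was 0.4 nM for MC3-R and MC5-R, 0.2 nM for MC4-R and 0.1 nM for MC1-R. Bound radioactivity was gamma-counted after filtration; values are triplicate means, with results below 0% reported as 0%.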

[2] = Penile erection induction in male rats; format: in vivo; conditions: rat, IV
Summary of the method: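 Male Sprague-Dawley rats (200-250 g), groups of 4-8, dosed IV or ICV at various doses and observed individually for penile erections. Only statistically relevant increases over vehicle-control mean PEs count as induction; IV responses below 1.0 PEs/rat treated as equivocal, some retested ICV.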

[3] = ICV food intake and body weight change; format: in vivo; conditions: rat, 1 nmol, 24 hours
Summary of the method: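 Rats fitted with intracerebroventricular cannulas and fed ad libitum got a single ICV dose of vehicle or compound (1-3 nmol). Food intake and body-weight change over the 24 h after dosing were compared with a 1-week vehicle baseline. Values at 48 h and 72 h were also recorded to follow return to baseline.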

[4] = IV and IP food intake and body weight change, rats; format: in vivo; conditions: rat, IV, dose not stated; for decrease in body weight: 24 hours
Procedure: IV and IP food intake and body weight change. Change in food intake and body weight was evaluated for selected compounds. Male Sprague-Dawley rats or male C57BL/6 mice were utilized. Animals were individually housed in conventional plexiglass hanging cages and maintained on a controlled 12 hour on/off light cycle. Water and powdered (LabDiet, 5P00 Prolab RMH 3000) or pelleted (Harlan Teklad 2018 18% Protein Rodent Diet) food was provided ad libitum. For 1 week before treatment, 24-hour food intake and body weight change was recorded to assess a baseline for the group during vehicle treatment. The rats were dosed IV with vehicle or selected compounds (0.5-3 mg/kg, and in some cases up to 10 mg/Kg) or dosed intraperitoneally (IP) with vehicle or selected compounds (0.5-10 mg/kg, and in some cases up to 50 mg/kg). Mice were dosed IP. The changes in body weight and food intake for the 24 hour period after dosing were determined. The changes in body weight and food intake for the 48 hour and 72 hour periods after dosing were also measured to determined reversal of changes in body weight and food intake effects back to baseline levels.

[5] = molecular target: MC3-R (Homo sapiens, UniProt P41968); assay: Competitive inhibition assay using [I^125]-NDP-α-MSH, hMC3-R membranes; format: binding; design: expressed in transfected cells; conditions: for inhibition at 1 µM: 1 μM test compound, read-out: Inhibition at 1 μM (NDP-α-MSH) In Normal System, MC3-R
Sequence of MC3-R (P41968 whole entry): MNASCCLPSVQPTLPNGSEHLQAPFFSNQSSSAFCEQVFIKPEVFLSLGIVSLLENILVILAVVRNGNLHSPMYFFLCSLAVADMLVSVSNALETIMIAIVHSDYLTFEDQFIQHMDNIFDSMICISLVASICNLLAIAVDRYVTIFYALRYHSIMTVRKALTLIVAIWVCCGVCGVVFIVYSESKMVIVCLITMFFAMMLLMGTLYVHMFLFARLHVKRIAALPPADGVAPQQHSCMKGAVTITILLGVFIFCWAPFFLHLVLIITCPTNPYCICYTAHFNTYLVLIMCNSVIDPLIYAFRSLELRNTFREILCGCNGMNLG
Summary of the method: as §1

[6] = molecular target: T2, MC5-R (Homo sapiens, UniProt P33032); assay: Competitive inhibition assay using [I^125]-NDP-α-MSH, hMC5-R membranes; format: binding; design: expressed in transfected cells; conditions: for inhibition at 1 µM: 1 μM test compound, read-out: Inhibition at 1 μM (NDP-α-MSH) In Normal System, MC5-R
T2 sequence (P33032 whole entry): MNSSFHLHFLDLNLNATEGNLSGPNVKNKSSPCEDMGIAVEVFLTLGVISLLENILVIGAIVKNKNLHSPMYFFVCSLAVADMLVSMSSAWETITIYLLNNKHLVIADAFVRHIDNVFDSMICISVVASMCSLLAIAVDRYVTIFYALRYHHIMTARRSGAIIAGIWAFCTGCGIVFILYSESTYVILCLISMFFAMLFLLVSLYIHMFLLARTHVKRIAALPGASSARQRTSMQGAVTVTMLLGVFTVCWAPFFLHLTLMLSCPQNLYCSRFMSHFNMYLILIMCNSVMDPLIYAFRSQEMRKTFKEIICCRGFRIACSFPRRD
Summary of the method: as §1

[7] = molecular target: T3, MC4-R (Homo sapiens, UniProt P32245); assay: cAMP functional activity assay in HEK-293 cells, normal system; format: cell-based; design: expressed in transfected cells; host or cells: HEK-293; conditions: for functional status at MC4-R in cAMP assay: normal system, 1 μM concentration where stated; for intrinsic activity at MC4-R in a normal system: normal receptor density system, NDP-α-MSH = 1.0
T3 sequence (P32245 whole entry): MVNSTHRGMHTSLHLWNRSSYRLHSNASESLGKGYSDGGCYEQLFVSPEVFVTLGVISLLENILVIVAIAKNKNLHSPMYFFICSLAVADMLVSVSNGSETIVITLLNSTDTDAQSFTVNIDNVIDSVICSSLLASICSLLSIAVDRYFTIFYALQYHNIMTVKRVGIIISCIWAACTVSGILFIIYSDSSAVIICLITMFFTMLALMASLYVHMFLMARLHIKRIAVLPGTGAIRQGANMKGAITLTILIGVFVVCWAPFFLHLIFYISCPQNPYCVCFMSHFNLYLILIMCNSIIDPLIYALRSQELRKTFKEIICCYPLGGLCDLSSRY

[8] = molecular target: T3, MC4-R; assay: Competitive inhibition assay using [I^125]-NDP-α-MSH, hMC4-R membranes; format: binding; design: host or cells: TREx-293 (HEK-293 stably expressing Tet repressor); conditions: for inhibition at 1 µM: 1 μM test compound, read-out: Inhibition at 1 μM (NDP-α-MSH) In Normal System, MC4-R
Summary of the method: as §1

[9] = molecular target: T3, MC4-R; assay: cAMP agonist stimulation, low receptor density system (0.1 ng/mL doxycycline); conditions: 0.1 ng/mL doxycycline, low receptor density hMC4-R system; NDP-α-MSH maximal cAMP = 1.0
[10] = molecular target: T3, MC4-R; assay: cAMP agonist stimulation, high receptor density system (10 ng/mL doxycycline); conditions: for Efficacy/Intrinsic Activity: NDP-α-MSH maximal cAMP = 1.0
[11] = molecular target: T1, MC1-R; assay: cAMP functional activity assay in B-16 mouse melanoma cells; format: cell-based; conditions: 1 μM concentration where stated
Procedure: (§2) General method for EC50 determination in functional activity assay. […] Data analysis and EC50 values were determined using nonlinear regression analysis with Prism Graph-Pad software.
(§3) Functional status. The agonist/antagonist status with respect to MC1-R, MC-3R, MC4-R and MC5-R of certain compounds of the invention was determined. Antagonistic activity was determined by measuring the inhibition of α-MSH-induced or NDP-α-MSH-induced cAMP levels following exposure to graded doses of compounds as in the preceding descriptions.

[12] = molecular target: T2, MC5-R; assay: cAMP functional activity assay in HEK-293 cells; format: cell-based; design: expressed in transfected cells; host or cells: HEK-293; conditions: 1 μM concentration where stated
Procedure: as §2, §3

[13] = 10 ng/mL doxycycline, high receptor density hMC4-R system

Compound	inhibition at 1 µM [1] [%]	Ki [1] [nM]	Penile Erection IV [2]	decrease in body weight [3] [%]	decrease in food intake [3] [%]	24 hour decrease in food intake [4] [%]	decrease in body weight [4] [%]	inhibition at 1 µM [5] [%]	inhibition at 1 µM [6] [%]	functional status at MC4-R in cAMP assay [7]	inhibition at 1 µM [8] [%]	Efficacy/Intrinsic Activity [9]	EC50 [10] [nM]	Efficacy/Intrinsic Activity [10, 13]	functional status at MC1-R in cAMP assay [11]	intrinsic activity at MC4-R in a normal system [7]	functional status at MC5-R in cAMP assay [12]	penile erection response [2]	other results
N=C(N)NCCC[C@H]1C(=O)N2C(CC[C@@H]2COc2ccc3ccccc3c2)N1C(=O)[C@@H](Cc1ccc(Cl)cc1Cl)NC(=O)[C@@H]1CC[C@H](c2ccccc2)N1 (stereo partly drawn) [Example 19, (2S,5R)-5-Phenyl-pyrrolidine-2-carboxylic acid {(R)-1-(2,4-dichloro-benzyl)-2-[(2S,5R)-2-(3-guanidino-propyl)-5-(naphthalen-2-yloxymethyl)-3-oxo-hexahydro-pyrrolo[1,2-a]imidazol-1-yl]-2-oxo-ethyl}-amide]	16	1040	No	3	38	1	2	43	86	no intrinsic activity (intrinsic activity below 0.1 (10%) is classified as inactive or having no intrinsic activity)	97	None	173	0.22	–	–	–	–	penile erection response ([2]; 1 μg/kg): no penile erection response
N=C(N)NCCC[C@H]1C(=O)N(CCc2c[nH]c3ccccc23)CCN1C(=O)[C@H](N)Cc1ccc(Cl)cc1Cl [Example 2, N-(3-{(S)-1-[(R)-2-Amino-3-(2,4-dichloro-phenyl)-propionyl]-4-[2-(1H-indol-3-yl)-ethyl]-3-oxo-piperazin-2-yl}-propyl)-guanidine]	7	1410	No	–	–	–	–	57	35	partial agonist (intrinsic activity between 0.1 (10%) and 0.7 (70%) is classified as a partial agonist)	96	None	57	0.56	partial agonist (intrinsic activity between 0.1 (10%) and 0.7 (70%) is classified as a partial agonist)	0.3	partial agonist (intrinsic activity between 0.1 (10%) and 0.7 (70%) is classified as a partial agonist)	–	penile erection response ([2]; 0.3 to 3 μg/kg): did not cause penile erection behavior
C[C@H](NC(=O)[C@H](Cc1c[nH]c2ccccc12)NC(=O)[C@H](CCCNC(=N)N)NC(=O)[C@@H](Cc1ccc(Cl)cc1)NC(=O)[C@H](COCc1ccccc1)NC(=O)CCCCCCN)C(N)=O [Example 15, NH2—(CH2)6—C(═O)-Ser(Bzl)-D-Phe(4-Cl)-Arg-Trp-Ala-NH2] (H-[Ahp]S(Bn)[dPhe(4-Cl)]RWA-NH2)	60	–	No	2	14	4	–	93	79	functionally inactive	100	None	55	0.67	–	less than 0.1	–	no penile erection response	–
N=C(N)NCCC[C@H](NC(=O)[C@@H](Cc1ccc(Cl)cc1)NC(=O)[C@H](COCc1ccccc1)NC(=O)CCCCCCN)C(=O)N[C@@H](Cc1c[nH]c2ccccc12)C(=O)N[C@@H](CC(=O)O)C(=O)N[C@@H](Cc1ccccc1)C(N)=O [Example 14, NH2—(CH2)6—C(═O)-Ser(Bzl)-D-Phe(4-Cl)-Arg-Trp-Asp-Phe-NH2] (H-[Ahp]S(Bn)[dPhe(4-Cl)]RWDF-NH2)	38	–	No	−2	50	30	2	66	52	partial agonist (intrinsic activity between 0.1 (10%) and 0.7 (70%) is classified as a partial agonist)	99	None	141	0.64	–	0.5	–	no penile erection response	–
N-{3-[1-[2(R)-Amino-3-(4-chloro-2-fluoro-phenyl)-propionyl]-5(S)-methyl-4-(2-naphthalen-2-yl-ethyl)-piperazin-2(S)-yl]-propyl}-guanidine [Example 3]	–	109	–	–	–	–	–	–	–	no intrinsic activity (intrinsic activity below 0.1 (10%) is classified as inactive or having no intrinsic activity)	–	None	–	0.26	partial agonist (intrinsic activity between 0.1 (10%) and 0.7 (70%) is classified as a partial agonist)	–	no intrinsic activity (intrinsic activity below 0.1 (10%) is classified as inactive or having no intrinsic activity)	–	Ki ([5]; read-out: Ki (nM) (NDP-α-MSH) In Normal System, MC3-R): 186 nM; Ki ([6]; read-out: Ki (nM) (NDP-α-MSH) In Normal System, MC5-R): 204 nM; Ki ([8]; read-out: Ki (nM) (NDP-α-MSH) In Normal System, MC4-R): 6 nM; EC50 [10, 13]: 61 nM
